Data: ChEMBL document CHEMBL1156529, “Unraveling the hidden catalytic activity of vertebrate class IIa histone deacetylases” (Proc Natl Acad Sci U S A, 2007)
Active and inactive are the calls of the source. No cut-off for these calls is given here.

Tests used:
Histone deacetylase 4 [1] = target: T1, Histone deacetylase 4 (Homo sapiens, UniProt P56524); test: Inhibition of flag-tagged HDAC4 expressed in HEK293 cells upto 10,000 nM by Biomol assay; format: cell-based
[2] = test system: T2, Histone deacetylase 7 (Homo sapiens), Q8WUI4 [H843Y]; test: Inhibition of HDAC7 H843Y mutant expressed in HEK293 cells; format: cell-based
T2 sequence (whole entry): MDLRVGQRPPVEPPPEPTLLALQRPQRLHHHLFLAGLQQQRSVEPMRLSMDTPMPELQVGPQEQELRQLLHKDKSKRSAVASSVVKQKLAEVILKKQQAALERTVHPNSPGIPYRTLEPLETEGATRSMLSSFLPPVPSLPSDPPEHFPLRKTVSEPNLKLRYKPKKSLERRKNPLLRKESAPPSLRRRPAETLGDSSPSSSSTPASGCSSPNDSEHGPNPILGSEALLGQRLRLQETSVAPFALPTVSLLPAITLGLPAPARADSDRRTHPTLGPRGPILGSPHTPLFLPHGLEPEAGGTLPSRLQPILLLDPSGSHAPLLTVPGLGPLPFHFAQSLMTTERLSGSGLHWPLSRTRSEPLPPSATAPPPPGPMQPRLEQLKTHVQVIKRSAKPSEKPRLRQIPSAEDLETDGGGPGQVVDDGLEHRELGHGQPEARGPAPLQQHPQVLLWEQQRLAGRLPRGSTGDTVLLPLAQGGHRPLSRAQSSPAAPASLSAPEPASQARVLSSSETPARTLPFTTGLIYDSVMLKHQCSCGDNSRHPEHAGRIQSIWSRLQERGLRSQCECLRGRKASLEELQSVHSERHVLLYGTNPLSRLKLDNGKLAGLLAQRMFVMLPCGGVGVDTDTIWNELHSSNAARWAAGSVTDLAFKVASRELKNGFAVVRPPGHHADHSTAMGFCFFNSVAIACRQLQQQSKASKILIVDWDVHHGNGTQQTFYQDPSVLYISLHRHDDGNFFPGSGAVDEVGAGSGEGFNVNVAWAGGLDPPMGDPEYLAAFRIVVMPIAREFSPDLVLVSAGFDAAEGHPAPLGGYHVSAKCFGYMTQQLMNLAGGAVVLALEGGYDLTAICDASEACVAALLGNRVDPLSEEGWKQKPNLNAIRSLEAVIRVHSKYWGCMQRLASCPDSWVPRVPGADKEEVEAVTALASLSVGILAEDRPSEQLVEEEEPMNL

[3] = test system: Histone deacetylase 5 (Homo sapiens), Q9UQL6 [H1006Y]; test: Inhibition of HDAC5 H1006Y mutant expressed in HEK293 cells; format: cell-based
Histone deacetylase 5 (Homo sapiens), Q9UQL6 [H1006Y], sequence (Q9UQL6 whole entry H1006Y, the tested form may be a part): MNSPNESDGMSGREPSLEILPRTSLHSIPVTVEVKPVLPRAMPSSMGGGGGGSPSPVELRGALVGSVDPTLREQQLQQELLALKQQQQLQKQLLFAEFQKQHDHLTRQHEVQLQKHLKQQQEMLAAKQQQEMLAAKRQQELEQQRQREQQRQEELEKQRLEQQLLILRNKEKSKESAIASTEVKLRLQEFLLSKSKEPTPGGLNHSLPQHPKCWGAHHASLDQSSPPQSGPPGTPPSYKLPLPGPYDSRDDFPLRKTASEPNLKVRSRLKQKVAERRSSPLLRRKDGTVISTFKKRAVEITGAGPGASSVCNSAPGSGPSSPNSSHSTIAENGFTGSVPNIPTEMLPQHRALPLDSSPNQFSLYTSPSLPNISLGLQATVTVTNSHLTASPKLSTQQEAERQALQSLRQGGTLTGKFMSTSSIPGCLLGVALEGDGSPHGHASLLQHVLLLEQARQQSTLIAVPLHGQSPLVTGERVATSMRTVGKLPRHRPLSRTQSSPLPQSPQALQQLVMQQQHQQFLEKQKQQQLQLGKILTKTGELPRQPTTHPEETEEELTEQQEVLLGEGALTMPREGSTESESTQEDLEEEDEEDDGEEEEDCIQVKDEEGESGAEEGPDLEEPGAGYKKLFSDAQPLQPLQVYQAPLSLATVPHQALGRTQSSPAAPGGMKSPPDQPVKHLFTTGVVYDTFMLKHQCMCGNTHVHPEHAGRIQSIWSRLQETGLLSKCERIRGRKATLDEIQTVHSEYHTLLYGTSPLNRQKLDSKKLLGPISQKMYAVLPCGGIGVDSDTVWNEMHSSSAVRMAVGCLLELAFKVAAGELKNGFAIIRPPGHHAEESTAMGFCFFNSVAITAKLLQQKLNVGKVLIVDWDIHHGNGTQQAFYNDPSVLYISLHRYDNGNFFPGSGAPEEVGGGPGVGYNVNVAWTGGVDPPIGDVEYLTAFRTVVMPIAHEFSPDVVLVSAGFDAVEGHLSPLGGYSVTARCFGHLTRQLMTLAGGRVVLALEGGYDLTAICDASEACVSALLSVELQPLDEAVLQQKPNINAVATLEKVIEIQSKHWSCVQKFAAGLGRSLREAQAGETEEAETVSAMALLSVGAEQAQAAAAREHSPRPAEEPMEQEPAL

Histone deacetylase 4 [4] = target: T1, Histone deacetylase 4; test: Inhibition of HDAC4 catalytic domain expressed in HEK293 cells upto 10,000 nM by Biomol assay; format: cell-based
Histone deacetylase 4 [5] = target: T1, Histone deacetylase 4; test: Inhibition of flag-tagged HDAC4 by Biomol assay
Histone deacetylase 4 [6] = target: T1, Histone deacetylase 4; test: Inhibition of flag-tagged HDAC4 by pull-down assay

T1 sequence (P56524 whole entry): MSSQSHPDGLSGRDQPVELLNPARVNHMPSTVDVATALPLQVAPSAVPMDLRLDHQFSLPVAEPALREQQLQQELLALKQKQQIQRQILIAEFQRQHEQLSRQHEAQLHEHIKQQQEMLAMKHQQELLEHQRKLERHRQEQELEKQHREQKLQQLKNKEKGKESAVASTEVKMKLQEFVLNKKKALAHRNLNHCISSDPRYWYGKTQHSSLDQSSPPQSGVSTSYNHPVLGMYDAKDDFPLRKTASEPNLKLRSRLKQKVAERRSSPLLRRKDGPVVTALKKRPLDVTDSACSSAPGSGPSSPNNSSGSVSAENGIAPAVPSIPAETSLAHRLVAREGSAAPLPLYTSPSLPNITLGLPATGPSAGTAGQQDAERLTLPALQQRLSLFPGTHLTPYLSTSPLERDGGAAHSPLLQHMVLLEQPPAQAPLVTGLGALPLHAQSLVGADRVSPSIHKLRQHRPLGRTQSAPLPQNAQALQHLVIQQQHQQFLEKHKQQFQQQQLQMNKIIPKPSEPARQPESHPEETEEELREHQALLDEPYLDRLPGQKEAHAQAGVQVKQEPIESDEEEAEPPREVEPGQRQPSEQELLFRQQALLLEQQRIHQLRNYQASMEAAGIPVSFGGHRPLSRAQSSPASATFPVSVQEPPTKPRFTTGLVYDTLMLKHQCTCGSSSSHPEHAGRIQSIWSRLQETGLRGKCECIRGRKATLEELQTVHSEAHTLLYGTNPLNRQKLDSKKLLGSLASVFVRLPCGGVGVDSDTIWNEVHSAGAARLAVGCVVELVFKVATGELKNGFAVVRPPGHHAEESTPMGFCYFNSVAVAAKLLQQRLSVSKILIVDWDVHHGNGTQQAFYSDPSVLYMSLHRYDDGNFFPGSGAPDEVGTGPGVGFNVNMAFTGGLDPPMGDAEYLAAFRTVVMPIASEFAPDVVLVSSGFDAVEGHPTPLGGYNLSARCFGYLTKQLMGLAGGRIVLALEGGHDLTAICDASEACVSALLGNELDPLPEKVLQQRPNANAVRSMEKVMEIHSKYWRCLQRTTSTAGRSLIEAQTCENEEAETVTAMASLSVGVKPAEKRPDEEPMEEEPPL

| Structure (SMILES) | Activity (Histone deacetylase 4 [1]) | Activity [2] | Activity [3] | Activity (Histone deacetylase 4 [4]) | IC50 (Histone deacetylase 4 [5]) [nM] | IC50 (Histone deacetylase 4 [6]) [nM] |
| --- | --- | --- | --- | --- | --- | --- |
| CCC(=O)CCCCC[C@@H]1NC(=O)[C@H]2CCCCN2C(=O)[C@H]([C@@H](C)CC)NC(=O)[C@H](Cc2cn(OC)c3ccccc23)NC1=O | inactive | inactive | inactive | inactive |  |  |
| CCC(=O)CCCCC[C@H](NC(=O)[C@H]1CCCCN1C(=O)[C@@H](NC(=O)[C@@H](N)Cc1cn(OC)c2ccccc12)[C@@H](C)CC)C(=O)O |  |  |  |  | 88 | 152 |
| O=C(/C=C/c1ccc(CN(CCO)CCc2c[nH]c3ccccc23)cc1)NO |  | Active | Active |  |  |  |
| CCC(=O)CCCCC[C@H](NC(=O)[C@H]1CCCCN1C(=O)[C@@H](NC(=O)[C@@H](N)Cc1cn(OC)c2ccccc12)[C@H](C)CC)C(=O)O | inactive |  |  | inactive |  |  |
